A short description of data set [1]: rate of generation of aspirin via hydrolysis, determined spectrophotometrically at 285 nm. Type of data set: physicochemical. As to conditions: for half-life: buffer, read-out: half-life of hydrolysis to aspirin (t1/2); for half-life / half-life of hydrolysis to aspirin (t1/2): average of three determinations. As for the experimental part: Therefore, the decrease in absorbance of a solution containing both the prodrug of this invention and aspirin observed at 285 nanometers upon adjustment of the pH to a value of six is proportional to the amount of aspirin in the solution.
Accordingly, the rate of generation of aspirin via hydrolysis of the derivative of the present invention was determined spectrophotometrically at 285 nm. Solutions of 1-O-(2'-acetoxy)benzoyl-α-D-2-deoxyglucopyranose in a buffered solution containing 5 mg/ml were freshly prepared and maintained at constant temperature in a circulating waterbath. […] Buffers employed were hydrochloric acid (pH 1 to 2), citrate (pH 3), acetate (pH 4 to 6) and phosphate (pH 7-9). Ionic strength was adjusted with potassium chloride (usually to 0.1). The change in absorbance at 285 nm was followed until no change in absorbance was observed. First order plots were constructed by plotting log (At -A.infin.) agains time. The effect of pH on the rate of hydrolysis was determined using solutions ranging from pH 1.2 to pH 9.
*Each halflife is the average of three determinations.

For data set [2] the following is noted: cited from earlier work.
Data set [3] is described as follows: rate of hydrolysis by following the rate of appearance of aspirin in solution by high pressure liquid chromatography. Type of data set: physicochemical. The conditions noted are these: HPLC; pH and temperature not given. As to the method:
The rate of hydrolysis of 1-O-(2'-acetoxy)benzoyl-α-D-glucopyranose, i.e., the compound of the formula [drawing 4] was determined by following the rate of appearance of aspirin in a solution by high pressure liquid chromatography.

As for `CC(=O)Oc1ccccc1C(=O)O[C@@H]1C[C@@H](O)[C@H](O)[C@@H](CO)O1` [1-O-(2'-acetoxy)benzoyl-α-D-2-deoxyglucopyranose], the half-life in data set [1] (pH 3, pH 3, 37° C) amounted to 7 min; in data set [1] (pH 4.6, pH 4.6, 37° C) it was 7.1 min; in data set [1] (pH 8, pH 8, 37° C) it was 7 min; in data set [1] (pH 9, pH 9, 37° C) it was 7 min. In addition, the “half-life of hydrolysis to aspirin (t1/2)” value in data set [1] (pH 6.4, 37° C) turned out to be 7.0 min; in data set [1] (pH 8, 37° C) it was 7.02 min. Besides, the “effect of pH on the generation of aspirin from the derivative” value in data set [1] (solutions ranging from pH 1.2 to pH 9) is listed as “independent of the pH of the solutions”.

For `CC(=O)Oc1ccccc1C(=O)O[C@H]1O[C@H](CO)[C@@H](O)[C@H](O)[C@H]1O` [1-O-(2'-acetoxy)benzoyl-α-D-glucopyranose], in data set [2] (reaction scheme (II)), the hydrolysis product entry is “tends to hydrolyze so as to form the corresponding sugar derivative of salicylic acid”. For the same compound, in data set [2] (to the extent that hydrolysis to aspirin takes place), the “rate of hydrolysis to aspirin” value is “very slow rate”. The compound also had a half-life in data set [3] of 55 h.

The values are drawn from patent US4242330A, “Derivative of aspirin” (The University of Kentucky Research Foundation, priority 1979, dated 1980).
